Measurements: patent publication US6706739B2, “Imidazolidinone compounds” (National Health Research Institute, priority 2001, dated 2004)
Like-named read-outs stand apart in the source and are kept apart here.

Tests used:
Assay type in all cases: cell-based
coxsackievirus A9 = assay: Plaque reduction assay, coxsackievirus A9
coxsackievirus A24 = assay: Plaque reduction assay, coxsackievirus A24
enterovirus 71 = assay: Plaque reduction assay, enterovirus 71
[1] = plaque reduction assay, vero cells, 35° C., 96 hours

O=C1N(CCCCCCOc2ccc(C(F)(F)F)cc2)CCN1c1ccncc1 [Compound 1, 1-(4-pyridyl)-3-(6-[4-(trifluoromethyl)phenoxy]hexyl)-2-imidazolidinone]
showed antiviral activity: antiviral activity against enteroviruses, in particular coxsackievirus A9 (coxsackievirus A9; [1]) | antiviral activity against enteroviruses, in particular coxsackievirus A24 (coxsackievirus A24; [1]) | antiviral activity against enteroviruses, in particular enterovirus 71 (enterovirus 71; [1])

O=C1N(CCCCCCCOc2ccc(Cl)cc2)CCN1c1ccncc1 [Compound 2, 1-[7-(4-chlorophenoxy)heptyl]-3-(4-pyridyl)-2-imidazolidinone]
showed antiviral activity: antiviral activity against enteroviruses, in particular coxsackievirus A9 (coxsackievirus A9; [1]) | antiviral activity against enteroviruses, in particular coxsackievirus A24 (coxsackievirus A24; [1]) | antiviral activity against enteroviruses, in particular enterovirus 71 (enterovirus 71; [1])

O=C1N(CCCCCCOc2ccc(Br)cc2)CCN1c1ccncc1 [Compound 17, 1-[6-(4-bromophenoxy)hexyl]-3-(4-pyridyl)-2-imidazolidinone]
showed antiviral activity: antiviral activity against enteroviruses, in particular coxsackievirus A9 (coxsackievirus A9; [1]) | antiviral activity against enteroviruses, in particular coxsackievirus A24 (coxsackievirus A24; [1]) | antiviral activity against enteroviruses, in particular enterovirus 71 (enterovirus 71; [1])

CC1CN(CCCCCCOc2ccc(Cl)cc2)C(=O)N1c1ccncc1 (stereo not drawn) [Compound 21, 1-[6-(4-chlorophenoxy)hexyl]-4-methyl-3-(4-pyridyl)-2-imidazolidinone]
showed antiviral activity: antiviral activity against enteroviruses, in particular coxsackievirus A9 (coxsackievirus A9; [1]) | antiviral activity against enteroviruses, in particular coxsackievirus A24 (coxsackievirus A24; [1]) | antiviral activity against enteroviruses, in particular enterovirus 71 (enterovirus 71; [1])

O=C1N(CCCCCCOc2ccc(Cl)cc2)CCN1c1ccncc1 [Compound 24, 1-[6-(4-chlorophenoxy)hexyl]-3-(4-pyridyl)-2-imidazolidinone]
showed antiviral activity: antiviral activity against enteroviruses, in particular coxsackievirus A9 (coxsackievirus A9; [1]) | antiviral activity against enteroviruses, in particular coxsackievirus A24 (coxsackievirus A24; [1]) | antiviral activity against enteroviruses, in particular enterovirus 71 (enterovirus 71; [1])

O=C1N(CCCCCOc2ccc(Cl)cc2)CCN1c1ccncc1 [Compound 28, 1-[5-(4-chlorophenoxy)pentyl]-3-(4-pyridyl)-2-imidazolidinone]
showed antiviral activity: antiviral activity against enteroviruses, in particular coxsackievirus A9 (coxsackievirus A9; [1]) | antiviral activity against enteroviruses, in particular coxsackievirus A24 (coxsackievirus A24; [1]) | antiviral activity against enteroviruses, in particular enterovirus 71 (enterovirus 71; [1])

O=C1N(CCCCCCOc2ccc(Br)cc2)CCN1c1cccnc1 [Compound 33, 1-[6-(4-bromophenoxy)hexyl]-3-(3-pyridyl)-2-imidazolidinone]
showed antiviral activity: antiviral activity against enteroviruses, in particular coxsackievirus A9 (coxsackievirus A9; [1]) | antiviral activity against enteroviruses, in particular coxsackievirus A24 (coxsackievirus A24; [1]) | antiviral activity against enteroviruses, in particular enterovirus 71 (enterovirus 71; [1])

O=C1N(CCCCOCCOc2ccc(Br)cc2)CCN1c1ccncc1 [Compound 34, 1-4-[2-(4-bromophenoxy)ethoxy]butyl-3-(4-pyridyl)-2-imidazolidinone]
showed antiviral activity: antiviral activity against enteroviruses, in particular coxsackievirus A9 (coxsackievirus A9; [1]) | antiviral activity against enteroviruses, in particular coxsackievirus A24 (coxsackievirus A24; [1]) | antiviral activity against enteroviruses, in particular enterovirus 71 (enterovirus 71; [1])

O=C1N(CCCCCCCOc2ccc(Cl)cc2)CCN1c1cccnc1 [Compound 39, 1-[7-(4-chlorophenoxy)heptyl]-3-(3-pyridyl)-2-imidazolidinone]
showed antiviral activity: antiviral activity against enteroviruses, in particular coxsackievirus A9 (coxsackievirus A9; [1]) | antiviral activity against enteroviruses, in particular coxsackievirus A24 (coxsackievirus A24; [1]) | antiviral activity against enteroviruses, in particular enterovirus 71 (enterovirus 71; [1])

O=C1N(CCCCCCOc2ccc(C(F)(F)F)cc2)CCN1c1cccnc1 [Compound 42, 1-(3-pyridyl)-3-(6-[4-(trifluoromethyl)phenoxy]hexyl)-2-imidazolidinone]
showed antiviral activity: antiviral activity against enteroviruses, in particular coxsackievirus A9 (coxsackievirus A9; [1]) | antiviral activity against enteroviruses, in particular coxsackievirus A24 (coxsackievirus A24; [1]) | antiviral activity against enteroviruses, in particular enterovirus 71 (enterovirus 71; [1])

O=C1N(CCCCCOCCOc2ccc(Br)cc2)CCN1c1ccncc1 [Compound 47, 1-(5-[2-(4-bromophenoxy)ethoxy]pentyl)-3-(4-pyridyl)-2-imidazolidinone]
showed antiviral activity: antiviral activity against enteroviruses, in particular coxsackievirus A9 (coxsackievirus A9; [1]) | antiviral activity against enteroviruses, in particular coxsackievirus A24 (coxsackievirus A24; [1]) | antiviral activity against enteroviruses, in particular enterovirus 71 (enterovirus 71; [1])

O=C1N(CCCCCCCOc2ccc(Br)cc2)CCN1c1ccncc1 [Compound 50, 1-[7-(4-bromophenoxy)heptyl]-3-(4-pyridyl)-2-imidazolidinone]
showed antiviral activity: antiviral activity against enteroviruses, in particular coxsackievirus A9 (coxsackievirus A9; [1]) | antiviral activity against enteroviruses, in particular coxsackievirus A24 (coxsackievirus A24; [1]) | antiviral activity against enteroviruses, in particular enterovirus 71 (enterovirus 71; [1])

O=C1N(CCCCCOc2ccc(Br)cc2)CCN1c1ccncc1 [Compound 52, 1-[5-(4-bromophenoxy)pentyl]-3-(4-pyridyl)-2-imidazolidinone]
showed antiviral activity: antiviral activity against enteroviruses, in particular coxsackievirus A9 (coxsackievirus A9; [1]) | antiviral activity against enteroviruses, in particular coxsackievirus A24 (coxsackievirus A24; [1]) | antiviral activity against enteroviruses, in particular enterovirus 71 (enterovirus 71; [1])

O=C1N(CCCCCCOc2ccc(I)cc2)CCN1c1ccncc1 [Compound 61, 1-[6-(4-iodophenoxy)hexyl]-3-(4-pyridyl)-2-imidazolidinone]
showed antiviral activity: antiviral activity against enteroviruses, in particular coxsackievirus A9 (coxsackievirus A9; [1]) | antiviral activity against enteroviruses, in particular coxsackievirus A24 (coxsackievirus A24; [1]) | antiviral activity against enteroviruses, in particular enterovirus 71 (enterovirus 71; [1])

O=C1N(CCCCCOc2ccc(-c3ccc(Cl)cc3)cc2)CCN1c1ccncc1 [Compound 73, 1-[6-(4-(4′-chloro)biphenyl-4-yloxy)pentyl]-3-pyridin-4-yl-imidazolidin-2-one]
showed antiviral activity: antiviral activity against enteroviruses, in particular coxsackievirus A9 (coxsackievirus A9) | antiviral activity against enteroviruses, in particular coxsackievirus A24 (coxsackievirus A24) | antiviral activity against enteroviruses, in particular enterovirus 71 (enterovirus 71)

COc1ccc(-c2ccc(OCCCCCN3CCN(c4ccncc4)C3=O)cc2)cc1 [Compound 74, 1-[5-(4′-methoxy-biphenyl-4-yloxy)pentyl]-3-pyridin-4-yl-imidazolidin-2-one]
showed antiviral activity: antiviral activity against enteroviruses, in particular coxsackievirus A9 (coxsackievirus A9; [1]) | antiviral activity against enteroviruses, in particular coxsackievirus A24 (coxsackievirus A24; [1]) | antiviral activity against enteroviruses, in particular enterovirus 71 (enterovirus 71; [1])

O=C1N(CCCCCOc2ccc(-c3ccc([N+](=O)[O-])cc3)cc2)CCN1c1ccncc1 [Compound 76, 1-[5-(4′-nitro-biphenyl-4-yloxy)pentyl]-3-pyridin-4-yl-imidazolidin-2-one]
showed antiviral activity: antiviral activity against enteroviruses, in particular coxsackievirus A9 (coxsackievirus A9; [1]) | antiviral activity against enteroviruses, in particular coxsackievirus A24 (coxsackievirus A24; [1]) | antiviral activity against enteroviruses, in particular enterovirus 71 (enterovirus 71; [1])
